Data on one molecule can be found in paper PMC9024338, “Bruceine H Mediates EGFR-TKI Drug Persistence in NSCLC by Notch3-Dependent β-Catenin Activating FOXO3a Signaling” (Frontiers in Oncology, 2022).

The test system of data set [1] is PC-9/GR xenografts. In words: PC-9/GR xenografts in BALB/c nude mice. Format: in vivo. Particulars: BH 2.5 mg/kg, gefitinib 25 mg/kg, alone or co-administered, intragastric.
Data set [2] relates to PC-9 cells. The experiment in a line: Apoptosis by flow cytometry (Annexin V-FITC/PI), PC-9. To be noted: PC-9, 48 h, various concentrations, relative to control. The format is cell-based, human. The procedure:
(§1) After being digested with trypsin without EDTA, the cells were washed gently with culture medium and twice with cold PBS. The pellet was resuspended in 400 μl of 1× binding buffer, the resuspended cells were transferred to flow tubes, then Annexin V-FITC (5 μl) and propidium iodide (10 μl) were added, and the mixture was incubated for 15 min at room temperature in the dark. The percentage of apoptotic cells was determined by flow cytometry (Backman, CA, USA) and FlowJo V10 software.

The subject of data set [3] is LO2 cells. The experiment in a line: Toxicity to normal human cell line LO2 (Figure S1). The format is cell-based. Here is the method:
Figure S1. The toxicity of Bruceine H (BH) and Bruceine D (BD) to 16HBE (A) and LO2 (B) cells was evaluated.

The test system of data set [4] is A549 cells. The experiment in a line: Apoptosis by flow cytometry (Annexin V-FITC/PI), A549. The format is cell-based, human. To be noted: A549, 48 h, various concentrations, relative to control. The procedure:
as §1
On the technique in general: In flow cytometry, cells or beads pass a laser one at a time.

Data set [5] relates to A549 cells. In words: Wound healing assay for migration. Format: cell-based, human. Particulars: 4 μM, 48 h. The procedure: A549 cells (3 × 10^5/ml/well) were seeded into a six-well plate. After overnight culture, when the fusion rate reached 95%–100%, the sterile pipette tip was perpendicular to the plate plane, and a straight wound was drawn on the cell monolayer. Following treatment with BD or BH, the migration of the cells was examined under a microscope (×4, Nikon, Tokyo, Japan), and pictures were obtained at 0 and 48 h. The computation of the cell migration formula is as follows: relative migration area (%) = (0 h wound area – 48 h wound area)/0 h wound area × 100%.

Consider `CC1=CC(=O)[C@@H](O)[C@]2(C)[C@H]3[C@@H](O)[C@H](O)[C@@]4(CO)OC[C@@]35[C@@H](C[C@@H]12)OC(=O)[C@H](O)[C@]54O` [BH, Bruceine H], for which, in data set [1], the “tumor growth of PC-9/GR xenografts” value is listed as “slight inhibitory effect”. In addition, in data set [2], the late apoptotic rate result is on record as “increased”. For the same molecule, the “toxicity to LO2 cells” value in data set [3] is recorded as “no apparent toxicity”. For the same molecule, the early apoptosis rate entry in data set [4] is “increased”. In data set [5], the “migration of A549 cells (wound healing)” value is “impaired”.
